Measurements from ChEMBL document CHEMBL1201862, “PubChem BioAssay data set” (2004).
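Five concentrations, 48 hours, 96-well plates. GI50: concentration for 50% inhibition of growth.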 The source made the active and inactive calls. Cut-off read from the data, not from the text of the source: active = GI50 up to about 1.1 µM and inactive = higher.

How the values were obtained:
Test in all cases: inhibition of tumour cell growth, NCI panel, 48 h
DLD-1 = tested on: DLD-1
DMS-114 = tested on: DMS-114
KM-20L2 = tested on: KM-20L2
LXFL 529 = tested on: LXFL 529
M19-MEL = tested on: M19-MEL
RXF 631 = tested on: RXF 631
SNB-78 = tested on: SNB-78
XF498 = tested on: XF498
HOP-18 = tested on: HOP-18

Measured: GI50

Cc1c(C(Cc2ccccc2N(C)C(=O)/C=C\C(=O)O)c2c[nH]c3ccccc23)c2ccccc2n1C (stereo not given)
inactive: DLD-1 18.2 µM | DMS-114 14.2 µM | KM-20L2 18.1 µM | LXFL 529 12.7 µM | M19-MEL 15.7 µM | RXF 631 14.2 µM | SNB-78 21.1 µM | XF498 21 µM

Nc1ccc2c(c1)Oc1c(F)c(F)cc3c(=O)c(C(=O)O)cn-2c13
inactive: DLD-1 43.9 µM | DMS-114 > 100 µM | HOP-18 51.5 µM | KM-20L2 53.6 µM | LXFL 529 41.5 µM | M19-MEL 34.9 µM

Clc1ccc(C2=NOC3C4CCC(C4)C23)cc1 (stereo not given)
inactive: DLD-1 > 100 µM | HOP-18 > 100 µM | LXFL 529 > 100 µM | M19-MEL > 100 µM | SNB-78 > 100 µM

Clc1ccccc1C1=NN(c2ccccc2)C2c3ccccc3OCC12 (stereo not given)
inactive: DLD-1 > 100 µM | DMS-114 > 100 µM | HOP-18 27.8 µM | KM-20L2 73.3 µM | LXFL 529 66.7 µM | M19-MEL > 100 µM | RXF 631 > 100 µM | SNB-78 > 100 µM | XF498 > 100 µM

COC1=CC(=C(C#N)/C(=N\c2ccccc2)SC)C=C(OC)C1=O
inactive: DLD-1 24.5 µM | HOP-18 > 100 µM | LXFL 529 17.5 µM | M19-MEL 70.6 µM | RXF 631 > 100 µM | SNB-78 67.9 µM

CCOC(=O)/C=C1/Oc2ccccc2C1(C)O (stereo not given)
inactive: DLD-1 > 100 µM | DMS-114 > 100 µM | HOP-18 > 100 µM | KM-20L2 > 100 µM | LXFL 529 > 100 µM | M19-MEL > 100 µM | SNB-78 > 100 µM

Cc1cc2c(cc1C)[n+]([O-])c(C(=O)/C=C/c1ccc(Cl)cc1)c(C)[n+]2[O-]
inactive: DLD-1 28.8 µM | DMS-114 29.1 µM | HOP-18 25.2 µM | KM-20L2 36.6 µM | LXFL 529 28.2 µM | M19-MEL 35.3 µM | SNB-78 > 100 µM | XF498 21.6 µM

CCc1ccccc1NC(=O)C(=O)CC(=O)c1sc(Nc2ccccc2)nc1C
inactive: DLD-1 > 100 µM | DMS-114 > 100 µM | HOP-18 > 100 µM | KM-20L2 > 100 µM | LXFL 529 > 100 µM | M19-MEL > 100 µM | RXF 631 > 100 µM | SNB-78 > 100 µM | XF498 > 100 µM

NC(Cc1ccccc1)C(=O)OCN1C(=O)C2C3C=CC(C2C1=O)C1C2C(=O)N(COC(=O)C(N)Cc4ccccc4)C(=O)C2C31 (stereo not given)
inactive: DLD-1 26.6 µM | DMS-114 16.1 µM | KM-20L2 23.9 µM | LXFL 529 20.5 µM

[N-]=[N+]=NC1CC(n2cc(COCC(F)(F)F)c(=O)[nH]c2=O)OC1CO (stereo not given)
inactive: DLD-1 > 100 µM | DMS-114 > 100 µM | KM-20L2 > 100 µM | LXFL 529 > 100 µM | M19-MEL > 100 µM | SNB-78 > 100 µM | XF498 > 100 µM

O=CCCn1[nH]c(=O)ccc1=O
inactive: DLD-1 > 100 µM | DMS-114 > 100 µM | KM-20L2 > 100 µM | M19-MEL > 100 µM | SNB-78 > 100 µM

C=C1c2[nH]c3ccccc3c2CC(C(=O)O)N1C(O)c1ccc(S(=O)(=O)O)cc1 (stereo not given)
inactive: DLD-1 > 100 µM | DMS-114 > 100 µM | LXFL 529 > 100 µM | M19-MEL > 100 µM | RXF 631 > 100 µM | SNB-78 > 100 µM | XF498 > 100 µM

C=CCCCN1CCCC(C)C1=S (stereo not given)
inactive: DLD-1 > 100 µM | DMS-114 > 100 µM | HOP-18 > 100 µM | KM-20L2 > 100 µM | M19-MEL > 100 µM | RXF 631 > 100 µM | XF498 > 100 µM

O=C(Nc1ccccc1Br)c1cccc([N+](=O)[O-])c1O
inactive: DLD-1 4.32 µM | DMS-114 3.18 µM | HOP-18 1.66 µM | KM-20L2 4.09 µM | LXFL 529 3.15 µM | M19-MEL 2.51 µM | RXF 631 17.7 µM | SNB-78 5.09 µM

Cc1c(Cl)ccc2c1NC(=O)C2(O)C1Cc2ccccc2C1=O (stereo not given)
inactive: DLD-1 > 100 µM | DMS-114 53.6 µM | HOP-18 > 100 µM | KM-20L2 > 100 µM | LXFL 529 41.1 µM | M19-MEL > 100 µM | SNB-78 > 100 µM

Brc1ccc(/N=c2/nc3ccccn3n3nc(-c4ccccc4)cc23)cc1
inactive: DLD-1 14.7 µM | DMS-114 99.8 µM | HOP-18 29.6 µM | KM-20L2 66.4 µM | LXFL 529 56.8 µM | M19-MEL 43.6 µM | RXF 631 31.6 µM | XF498 10.3 µM

CCCO/S(=N\S(=O)(=O)c1ccccc1)c1ccccc1[N+](=O)[O-] (stereo not given)
inactive: DLD-1 > 100 µM | DMS-114 > 100 µM | KM-20L2 > 100 µM | LXFL 529 > 100 µM | M19-MEL > 100 µM | RXF 631 > 100 µM | SNB-78 > 100 µM | XF498 > 100 µM

CN(C)CCCNC(=O)N/N=C/c1cccc([N+](=O)[O-])c1
inactive: DLD-1 > 100 µM | DMS-114 > 100 µM | HOP-18 > 100 µM | LXFL 529 > 100 µM | SNB-78 > 100 µM | XF498 5.93 µM

NC(=O)N1N=C2c3ccccc3SC[C@H]2[C@@H]1c1ccccc1
inactive: DLD-1 21.4 µM | DMS-114 23.7 µM | KM-20L2 20.2 µM | LXFL 529 26.5 µM | M19-MEL 34.6 µM | SNB-78 33.5 µM | XF498 22 µM

COc1ccc2[nH]c3c(O)nncc3c2c1
inactive: DLD-1 > 100 µM | DMS-114 > 100 µM | HOP-18 > 100 µM | LXFL 529 > 100 µM | M19-MEL > 100 µM | SNB-78 > 100 µM

COC(=O)C(=O)C(CC(=O)Nc1ccc(C)cc1)C(=O)OC (stereo not given)
inactive: DLD-1 > 100 µM | DMS-114 > 100 µM | HOP-18 > 100 µM | KM-20L2 > 100 µM | LXFL 529 > 100 µM | M19-MEL > 100 µM | RXF 631 > 100 µM | SNB-78 > 100 µM | XF498 > 100 µM

O=C(NCCCCCCNC(=O)c1cccc2ccccc12)c1cccc2ccccc12
inactive: DLD-1 59.7 µM | DMS-114 > 100 µM | HOP-18 24.6 µM | KM-20L2 > 100 µM | LXFL 529 57.1 µM | RXF 631 47.2 µM | SNB-78 5.42 µM | XF498 3.2 µM

Cc1ccccc1NC(=O)CC(=O)n1nc(-c2ccccc2)c(/N=N/c2ccc([N+](=O)[O-])cc2)c1-c1ccccc1
inactive: DLD-1 18.7 µM | DMS-114 10.6 µM | HOP-18 16.5 µM | KM-20L2 16.7 µM | LXFL 529 24.9 µM | RXF 631 12.4 µM | SNB-78 26.9 µM | XF498 21.8 µM

CC(C)(C)c1cc(CCC(=O)Nc2ccc(Cl)cc2)nc(S)n1
inactive: DLD-1 > 100 µM | DMS-114 > 100 µM | HOP-18 > 100 µM | KM-20L2 > 100 µM | LXFL 529 > 100 µM | M19-MEL > 100 µM | RXF 631 > 100 µM | XF498 > 100 µM

O=[N+]([O-])c1ccc2c(c1)OCCOCCOc1ccc([N+](=O)[O-])cc1OCCOCCO2
inactive: DMS-114 > 100 µM | KM-20L2 50.9 µM | SNB-78 > 100 µM

CCCCCCCCCCCCCCCCCC(=O)NCCCNCCCNC(=O)CCCCCCCCCCCCCCCCC
inactive: DLD-1 > 100 µM | DMS-114 > 100 µM | HOP-18 > 100 µM | KM-20L2 > 100 µM | LXFL 529 > 100 µM | M19-MEL > 100 µM | RXF 631 > 100 µM

CN(c1ccccc1)c1cc2ccccc2nn1
inactive: DLD-1 > 100 µM | DMS-114 52.2 µM | HOP-18 > 100 µM | KM-20L2 > 100 µM | LXFL 529 56.1 µM | M19-MEL 59.2 µM | RXF 631 34.1 µM | SNB-78 > 100 µM | XF498 67 µM

O/N=C1/CCCC/C1=C\c1ccc(Cl)c(Cl)c1
inactive: DLD-1 32.9 µM | DMS-114 19.3 µM | HOP-18 22.1 µM | KM-20L2 20.5 µM | LXFL 529 19.7 µM | M19-MEL 37.3 µM | SNB-78 22.9 µM | XF498 19.8 µM

O=C1C2=C(CCCC2)Nc2cccc3ncn1c23
inactive: DLD-1 > 100 µM | DMS-114 > 100 µM | HOP-18 10.3 µM | KM-20L2 > 100 µM | LXFL 529 > 100 µM | M19-MEL > 100 µM | SNB-78 > 100 µM
